Data published in patent US20130096067A1, “DROSOPHILA TUMOR STEM CELL MODEL AND USES THEREOF” (priority 2011, published 2013).
Where two headings read alike, the source gives them in different places.

Test system: Raf-1^gof intestinal tumors
Settings: for Log2 (fold) (luciferase activity, log2 of the fold difference relative to DMSO controls) / Fold (luciferase activity, fold difference relative to DMSO controls): screen of 480 ICCB compounds in vials, compounds fed to flies with one-day old Raf-1^gof tumors, esg-Gal4 luciferase
[1] = assessed three days later, averaged from multiple wells
[2] = ICCB compounds fed in vials to flies with one-day old Raf-1^gof tumors, assessed three days later
[3] = ICCB compounds fed in vials to flies with one-day old Raf-1^gof tumors, assessed three days later, averaged from multiple wells
Note: test concentration or dose not given here.

Row | Structure (SMILES) | Log2 (fold) (luciferase activity, log2 of the fold difference relative to DMSO controls) (assessed three days later) | Fold (luciferase activity, fold difference relative to DMSO controls) [1] | Log2 (fold) of luciferase activity relative to DMSO controls [2] | Fold (luciferase activity relative to DMSO controls) [3] [fold] | other results
1 | CC1(O)CC23CC(O)C4(O)C(CC(O)C4(C)C)C(C)(O)C2CCC1C3O (stereo not shown) [GR[…]] | −0.553 | 0.682 |  |  | 
2 | O=C1Nc2ccc(I)cc2/C1=C/c1cc(Br)c(O)c(Br)c1 [GW-5074] | −0.369 | 0.774 |  |  | 
3 | O=C(Nc1ccccc1)c1cc([N+](=O)[O-])ccc1Cl [GW-9662] | −0.581 | 0.669 |  |  | 
4 | CN1C(=O)[C@]23CC4=CC=C[C@H](O)[C@H]4N2C(=O)[C@@]1(CO)SS3 [Gliotoxin] | −0.478 | 0.718 |  |  | 
5 | Cn1c2ccccc2c2c3c(c4c5ccccc5n(CCC#N)c4c21)CNC3=O [Go6976] | −0.287 | 0.819 |  |  | 
6 | O=S(=O)(c1cccc2cnccc12)N1CCCNCC1 [HA1077] | −0.326 | 0.798 |  |  | 
7 | NC(N)=NCCNS(=O)(=O)c1cccc2cnccc12 [HA-1004] | −0.372 | 0.773 |  |  | 
8 | COCc1cc(O)c(O)c(O)c1-c1c(COC)cc(O)c(O)c1O [HBDDE] | −0.233 | 0.851 |  |  | 
9 | NCCc1c[nH]cn1 [HISTAMINE] |  |  | −0.158 | 0.896 | 
10 | CC(=O)OCOC(c1ccc2ccccc2c1)P(=O)(OCOC(C)=O)OCOC(C)=O (stereo not shown) [HNMPA-(AM)3] |  |  | −0.049 | 0.966 | 
11 | C=C1C(=O)O[C@@H]2C[C@@H](C)[C@@H]3C=CC(=O)[C@@]3(C)[C@@H](O)[C@H]12 [Helenalin] |  |  |  |  | Fold (luciferase activity relative to DMSO controls) (in vivo): 1.112 fold; Log2 (fold) of luciferase activity relative to DMSO controls (in vivo): 0.154
12 | CC(C)c1cccc(=O)c(O)c1 [Hinokitiol] | −0.240 | 0.847 |  |  | 
13 | C/C=C1\[C@H]2C=C(C)C[C@]1(N)c1ccc(=O)[nH]c1C2 [Huperzine A [(−)-Huperzine A]] | −0.641 | 0.641 |  |  | 
14 | CC1(C2CCCC2)Cc2cc(OCC(=O)O)c(Cl)c(Cl)c2C1=O (stereo not shown) [IAA-94] |  |  | 0.061 | 1.043 | 
15 | CNC(=O)[C@H]1O[C@@H](n2cnc3c(NCc4cccc(I)c4)ncnc32)[C@H](O)[C@@H]1O [IB-MECA] |  |  | −0.083 | 0.944 | 
16 | CC(C)Cn1c(=O)n(C)c(=O)c2[nH]cnc21 [IBMX] | −0.297 | 0.814 |  |  | 

Row | Structure (SMILES) | Log2 (fold) (luciferase activity, log2 of the fold difference relative to DMSO controls) (assessed three days later) | Fold (luciferase activity, fold difference relative to DMSO controls) [1] | Log2 (fold) of luciferase activity relative to DMSO controls [2] | Fold (luciferase activity relative to DMSO controls) [3] [fold] | other results
17 | O=C1Nc2ccccc2/C1=C1/Nc2ccccc2/C1=N\O [Indirubin-3′-monoxime] |  |  | −0.025 | 0.983 | 
18 | O=C1Nc2ccccc2/C1=C1/Nc2ccccc2C1=O [Indirubin] |  |  | −0.103 | 0.931 | 
19 | COC(=O)[C@@]1(O)C[C@H]2O[C@]1(C)n1c3ccccc3c3c4c(c5c6ccccc6n2c5c31)C(=O)NC4 [K252A] |  |  | 0.364 | 1.287 | 
20 | CCCCCCOC(=O)[C@]1(O)C[C@@H]2O[C@@]1(C)n1c3ccccc3c3c4c(c5c6ccccc6n2c5c31)C(=O)NC4 [KT-5720] | −0.246 | 0.843 |  |  | 
21 | COC(=O)[C@@H](N)CCCNC(=N)N[N+](=O)[O-] [L-NAME] | −0.446 | 0.734 |  |  | 
22 | CCCCCCCCCCCCCCCC(=O)N[C@@H](COP(=O)(O)O)C(=O)O [L-NASPA] |  |  | 0.003 | 1.002 | 
23 | COc1ccc([C@H]2Sc3ccccc3N(CCN(C)C)C(=O)[C@H]2OC(C)=O)cc1 [L-cis-DILTIAZEM] |  |  | 0.137 | 1.100 | 
24 | CCCCC/C=C\CC1OC1CCCCCCCC(=O)O (stereo not shown) [LEUKOTOXIN A (9,10-EODE)] | −0.216 | 0.861 |  |  | 
25 | CCCCC/C=C\C[C@@H](O)/C=C/C=C/C=C\[C@@H](O)CCCC(=O)O [LEUKOTRIENE B4] |  |  | −0.037 | 0.975 | 
26 | CCCCC/C=C\C\C=C/C=C/C=C/[C@@H](SC[C@H](NC(=O)CC[C@H](N)C(=O)O)C(=O)NCC(=O)O)[C@@H](O)CCCC(=O)O [LEUKOTRIENE C4] |  |  | 0.114 | 1.082 | 
27 | CCCCC/C=C\C\C=C/C=C/C=C/[C@@H](SC[C@H](N)C(=O)NCC(=O)O)[C@@H](O)CCCC(=O)O [LEUKOTRIENE D4] |  |  | 0.234 | 1.176 | 
28 | CCCCC/C=C\C\C=C/C=C/C=C/[C@@H](SC[C@H](N)C(=O)O)[C@@H](O)CCCC(=O)O [LEUKOTRIENE E4] | −0.439 | 0.737 |  |  | 
29 | C/C(O)=C(\C#N)C(=O)Nc1cc(Br)ccc1Br [LFM-A13] | −0.417 | 0.749 |  |  | 
30 | CCN(CC)CC(=O)Nc1c(C)cccc1C [LIDOCAINE] |  |  | 0.049 | 1.035 | 
31 | CCCCC/C=C\C/C=C\CCCCCCCC(N)=O [LINOLEAMIDE] |  |  | −0.027 | 0.981 | 
32 | CCCCC/C=C\C/C=C\CCCCCCCC(=O)O [LINOLEIC ACID] |  |  | 0.024 | 1.017 | 
